Test results reported in patent US6630488B1, “Quinolizinones as integrin inhibitors” (Biochem Pharma, Inc., priority 1998, dated 2003).
Structures can show the parent of a compound that is named as a salt.

What was measured:
[1] = target: T1, placental αvβ3 (Homo sapiens, UniProt P05106+P06756); test: Fibrinogen binding to immobilized αvβ3; conditions: biotinylated-fibrinogen 10 nM, immobilized placental αvβ3; read-out: IC50 values for the fibrinogen binding assay αvβ3
T1 construct: purified active GP IIb-IIIa (Calbiochem) or olacental αvβ3 at 0.5 μg/ml; from tissue; host or cells: placenta
Method: (§1) Nonbound fibrinogen was removed by five washes with binding buffer. Avidin conjugated to alkaline phosphatase (Sigma), diluted in binding buffer, was added and incubated for two hours at 37° C. The plates were washed five times with binding buffer, and after addition of the substrate PNPP (Pierce), the enzyme activity was measured by the absorbance at 405 nm.

[2] = system: Chick Chorioallantoic Membrane (CAM) capillary formation; test: Chick chorioallantoic membrane (CAM) mesh assay; assay type: in vivo, chicken; conditions: Day 12, 24 hr treatment
Method: Fertilized white leghorn chicken eggs (SPAFAS Inc., Norwich, Conn.) were received at day 0 and incubated for 3 days at 37 C with constant humidity. On day 3, eggs were rinsed with 70% ethanol and opened into 100 mm^2 tissue culture coated Petri dishes under aseptic conditions. The embryos were then returned to a humidified 38 C incubator for 7-9 additional days.
Vitrogen (Collagen Biomaterials, Palo Alto, Calif.) at a final concentration of 0.73 mg/ml and Matrigel (Becton Dickinson, Bedford, Mass.) at a final concentration of 10 mg/ml was directly pipetted onto Nylon meshes with 250 μm^2 openings which were cut into 4 mm×4 mm squares and autoclaved. Polymerization of meshes were under aseptic conditions, on bacteriological Petri dishes. The polymerization conditions for each substrate were identical; after mixing with or without […] of VPF/VEGF165 (Peprotech, Rocky Hill, N.J.) and/or compounds of interest, 40 μl were pipetted onto each mesh in a bacteriological Petri dish.
The Petri dish was placed in a humidified 37 C incubator with 5% CO2 for 30 minutes to allow polymerization followed by an incubation at 4 C for 2 hours.
In a tissue culture enclosure, meshes were placed onto the periphery of the CAM of a day 12-14 embryo, excluding areas containing major vessels. The embryos were then returned to the humidified 38 C incubator with 3% CO2 for 24 to 48 additional hours.
Embryos were removed from the incubator and meshes were viewed under a dissecting microscope for gross evaluation. Injection of 400 μl FITC dextran, MW 2,000,000 (Sigma, St. Louis, Mo.) through glass microcapillary tubes by infusion into the umbilical vein was performed at a rate of 200 μl per minute. The FITC dextran was allowed to circulate for 5 minutes and 3.7% formaldehyde in PBS was applied directly on each mesh. The embryos were then incubated at 4 C for 5 minutes and the meshes were dissected off the CAM and fixed in 3.7% formaldehyde for 10 minutes to overnight.
After fixation, meshes were mounted on slides with 90% glycerol in PBS and visualized on an inverted fluorescence microscope. A Nikon Diaphot with a Sony DXC-151A camera attached to the side port was used for capture of images and analysis was with the NIH Image 1.61 software program. For each mesh, 5 random staggered images (approximately 600 μm each) were captured. The areas of high intensity were highlighted and measured. Results are expressed as ability to suppress capillary formation after subtraction from negative control. Values were calculated as i inhibition, considering 100% the capillary density achieved by VPF in the presence of vitrogen alone minus the background levels in the absence of VPF. Negative values indicate angiogenic stimulation above the VPF positive control.

[3] = target: T2, GP IIb-IIIa (αIIbβ3) (Homo sapiens, UniProt P05106+P08514); test: Fibrinogen binding to immobilized GP IIb-IIIa (αIIbβ3); conditions: biotinylated-fibrinogen 10 nM, immobilized GP IIb-IIIa; read-out: IC50 values for the fibrinogen binding assay αIIbβ3
T2 construct: purchased Calbiochem
Method: as §1

T2 sequence (P08514 32-887 limits assumed): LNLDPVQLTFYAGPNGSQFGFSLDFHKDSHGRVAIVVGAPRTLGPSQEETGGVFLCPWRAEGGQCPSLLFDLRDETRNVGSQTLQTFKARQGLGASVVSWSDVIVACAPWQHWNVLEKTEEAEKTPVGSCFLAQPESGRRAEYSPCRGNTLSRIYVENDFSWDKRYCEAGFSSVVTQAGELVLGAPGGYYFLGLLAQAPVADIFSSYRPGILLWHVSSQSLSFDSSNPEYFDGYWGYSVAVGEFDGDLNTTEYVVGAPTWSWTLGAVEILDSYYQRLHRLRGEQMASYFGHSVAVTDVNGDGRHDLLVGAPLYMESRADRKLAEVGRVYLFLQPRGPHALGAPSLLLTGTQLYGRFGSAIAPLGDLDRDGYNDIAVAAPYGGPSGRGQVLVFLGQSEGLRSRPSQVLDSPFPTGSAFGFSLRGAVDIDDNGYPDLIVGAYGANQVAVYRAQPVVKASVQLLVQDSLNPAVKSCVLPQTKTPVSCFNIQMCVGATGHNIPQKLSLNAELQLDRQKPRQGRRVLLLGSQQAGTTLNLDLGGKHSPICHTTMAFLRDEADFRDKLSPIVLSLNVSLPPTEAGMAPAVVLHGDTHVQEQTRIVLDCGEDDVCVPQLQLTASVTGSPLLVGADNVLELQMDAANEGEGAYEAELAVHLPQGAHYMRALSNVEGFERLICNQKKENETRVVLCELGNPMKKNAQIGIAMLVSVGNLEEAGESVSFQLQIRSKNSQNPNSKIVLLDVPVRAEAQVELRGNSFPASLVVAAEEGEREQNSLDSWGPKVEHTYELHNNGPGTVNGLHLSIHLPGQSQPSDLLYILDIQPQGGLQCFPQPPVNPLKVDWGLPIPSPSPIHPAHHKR
T2 sequence (P08514 891-1039 partner limits assumed): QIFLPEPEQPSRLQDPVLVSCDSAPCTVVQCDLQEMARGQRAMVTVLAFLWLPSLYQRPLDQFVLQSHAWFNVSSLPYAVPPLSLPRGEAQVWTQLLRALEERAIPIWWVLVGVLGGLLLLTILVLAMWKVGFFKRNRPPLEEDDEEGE
T2 sequence (P05106 27-788): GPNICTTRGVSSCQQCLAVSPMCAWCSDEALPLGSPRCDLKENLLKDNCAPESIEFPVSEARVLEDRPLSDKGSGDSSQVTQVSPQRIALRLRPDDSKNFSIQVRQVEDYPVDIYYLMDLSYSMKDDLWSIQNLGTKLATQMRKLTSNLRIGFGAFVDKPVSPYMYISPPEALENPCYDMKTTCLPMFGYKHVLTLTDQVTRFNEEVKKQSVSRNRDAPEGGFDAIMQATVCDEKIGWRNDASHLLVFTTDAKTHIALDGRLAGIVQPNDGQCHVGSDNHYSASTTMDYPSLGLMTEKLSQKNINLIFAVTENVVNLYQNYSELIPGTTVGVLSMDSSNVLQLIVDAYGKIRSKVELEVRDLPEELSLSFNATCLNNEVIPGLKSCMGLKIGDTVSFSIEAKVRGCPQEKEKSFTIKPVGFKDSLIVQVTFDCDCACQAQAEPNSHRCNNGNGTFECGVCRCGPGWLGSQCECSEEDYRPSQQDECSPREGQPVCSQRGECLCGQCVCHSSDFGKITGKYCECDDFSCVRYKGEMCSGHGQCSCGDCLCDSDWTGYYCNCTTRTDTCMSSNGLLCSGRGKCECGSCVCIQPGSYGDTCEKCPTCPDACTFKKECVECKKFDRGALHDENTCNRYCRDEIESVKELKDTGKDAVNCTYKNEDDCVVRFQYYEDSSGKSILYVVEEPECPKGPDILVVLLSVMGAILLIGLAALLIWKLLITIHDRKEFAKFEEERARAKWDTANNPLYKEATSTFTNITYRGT
T1 sequence (P06756 31-889 limits assumed): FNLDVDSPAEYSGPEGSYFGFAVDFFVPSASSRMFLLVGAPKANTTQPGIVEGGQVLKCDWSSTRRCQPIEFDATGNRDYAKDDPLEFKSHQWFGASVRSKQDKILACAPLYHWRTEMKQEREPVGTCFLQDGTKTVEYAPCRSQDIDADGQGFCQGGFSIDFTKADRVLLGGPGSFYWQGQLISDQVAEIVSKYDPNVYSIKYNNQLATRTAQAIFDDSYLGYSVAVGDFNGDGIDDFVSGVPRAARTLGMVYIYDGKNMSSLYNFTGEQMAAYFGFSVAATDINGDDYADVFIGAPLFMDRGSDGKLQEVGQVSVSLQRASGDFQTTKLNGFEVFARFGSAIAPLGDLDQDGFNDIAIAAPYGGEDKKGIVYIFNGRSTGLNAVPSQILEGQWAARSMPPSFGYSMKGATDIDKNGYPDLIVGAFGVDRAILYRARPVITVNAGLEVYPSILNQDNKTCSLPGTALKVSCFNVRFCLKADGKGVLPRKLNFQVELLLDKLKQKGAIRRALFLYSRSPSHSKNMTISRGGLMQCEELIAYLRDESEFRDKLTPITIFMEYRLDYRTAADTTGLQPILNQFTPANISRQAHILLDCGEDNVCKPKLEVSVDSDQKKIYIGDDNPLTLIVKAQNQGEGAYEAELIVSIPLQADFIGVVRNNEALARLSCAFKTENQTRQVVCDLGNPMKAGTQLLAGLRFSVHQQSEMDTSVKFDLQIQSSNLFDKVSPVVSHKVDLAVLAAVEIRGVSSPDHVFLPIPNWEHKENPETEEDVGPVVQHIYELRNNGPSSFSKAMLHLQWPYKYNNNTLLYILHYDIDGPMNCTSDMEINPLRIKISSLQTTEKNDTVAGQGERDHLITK
T1 sequence (P06756 891-1048 partner limits assumed): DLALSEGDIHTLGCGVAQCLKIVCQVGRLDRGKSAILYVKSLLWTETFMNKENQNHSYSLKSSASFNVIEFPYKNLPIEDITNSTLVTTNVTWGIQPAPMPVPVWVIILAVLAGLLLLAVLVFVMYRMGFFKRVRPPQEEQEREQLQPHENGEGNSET
T1 sequence (P05106 27-788): as the sequence (P05106 27-788) above

| SMILES | IC50 [1] [µM] | IC50 [3] [µM] | also measured |
| --- | --- | --- | --- |
| N=C(N)N1CCN(c2ccn3c(=O)c(C(=O)NC(CC(=O)O)c4ccccc4)ccc3c2)CC1.O=C(O)C(F)(F)F (racemic) [Compound XL, (+/−)-3-{[8-(4-Carbamimidoyl-piperazin-1-yl)-4-oxo-4H-quinolizine-3-carbonyl]-amino}-3-phenyl-propionic Acid Trifluoroacetic Acid Salt] | 1.9 | – | CAM inhibition of capillary formation ([2]; 3 μg/mesh, +VPF): −2%; CAM inhibition of capillary formation ([2]; 3 μg/mesh, −VPF): 4%; CAM inhibition of capillary formation ([2]; 17 μg/mesh, +VPF): 7%; CAM inhibition of capillary formation ([2]; 17 μg/mesh, −VPF): 10%; CAM inhibition of capillary formation ([2]; 33 μg/mesh, +VPF): 11%; CAM inhibition of capillary formation ([2]; 33 μg/mesh, −VPF): 9% |
| N=C(N)SCCNc1ccn2c(=O)c(C(=O)NC(CC(=O)O)c3ccccc3)ccc2c1 (racemic) [Compound XXXVII, (+/−)-3-{[8-(2-Carbamimidoylsulfanyl-ethylamino)-4-oxo-4H-quinolizine-3-carbonyl]-amino}-3-phenyl-propionic Acid Trifluoroacetic Acid Salt] | 8.2 | 0.17 | – |
| N=C(N)NCc1ccc2cc(C(=O)NC(CC(=O)O)c3cc(Cl)cc(Cl)c3)cc(=O)n2c1 (racemic) [Compound XLII, (+/−)-3-(3,5-Dichlorophenyl)-3-((7-guanidinomethyl-4-oxo-4H-quinolizine-2-carbonyl)-amino]-propionic acid trifluoroacetic acid salt] | 4 | 23 | – |
| N=C(N)NCCCCCOc1ccc2ccc(C(=O)NC[C@H](NS(=O)(=O)c3ccccc3)C(=O)O)c(=O)n2c1 [Compound II, (S)-2-Benzenesulfonylamino-3-{[7-(5-guanidino-pentyloxy)-4-oxo-4H-quinolizine-3-carbonyl]-amino}-propionic Acid Hydrochloride] | 24 | 3.9 | – |
| NCCCOc1ccc2cc(C(=O)NC[C@H](Nc3ncccn3)C(=O)O)cc(=O)n2c1 (stereo in doubt) [Compound XXI, 3-{[7-(3-Amino-propoxy)-4-oxo-4H-quinolizine-2 carbonyl]-amino}-2-(pyrimidin-2-ylamino)-propionic Acid Hydrochloride] | 14 | 0.074 | – |
| NCCCOc1ccc2ccc(C(=O)N[C@H]3CCCC[C@@H]3C(=O)O)c(=O)n2c1.O=C(O)C(F)(F)F (racemic) [Compound V, (+/−)(trans)-2-{[7-(3-Amino-propoxy)-4-oxo-4H-quinolizine-3-carbonyl]-amino}-cyclohexanecarboxylic Acid Trifluoroacetic Acid Salt] | > 100 | 96 | CAM inhibition of capillary formation ([2]; 3 μg/mesh, +VPF): 7%; CAM inhibition of capillary formation ([2]; 3 μg/mesh, −VPF): 1%; CAM inhibition of capillary formation ([2]; 17 μg/mesh, +VPF): 9%; CAM inhibition of capillary formation ([2]; 17 μg/mesh, −VPF): 8%; CAM inhibition of capillary formation ([2]; 33 μg/mesh, +VPF): 20%; CAM inhibition of capillary formation ([2]; 33 μg/mesh, −VPF): 15% |
| O=C(NCc1ccccc1)NCc1ccc2cc(C(=O)NC[C@H](NS(=O)(=O)c3ccccc3)C(=O)O)cc(=O)n2c1 [Compound XLVII, (S)-2-Benzenesulfonylamino-3-{[7-(3-benzyl-ureidomethyl)-4-oxo-4H-quinolizine-2-carbonyl]-amino}-propionic acid] | 0.006 | 4.85 | – |
| N=C(N)NCCCOc1ccc2ccc(NC(=O)NC(CC(=O)O)c3cccnc3)c(=O)n2c1 (racemic) [Compound VIII, (+/−)-3-{3-[7-(3-Guanidino-propoxy)-4-oxo-4H-quinolizin-3-yl]-ureido}-3-pyridin-3-yl-propionic Acid] | 1.2 | 3.5 | – |
| NCCCCOc1ccc2cc(C(=O)NC[C@H](NS(=O)(=O)c3ccccc3)C(=O)O)cc(=O)n2c1 [Compound XVII, (S)-3-{[7-(4-Amino-butoxy)-4-oxo-4H-quinolizine-2-carbonyl]-amino}-2-benzenesulfonylamino-propionic Acid Trifluoroacetic Acid Salt] | 5.1 | 0.00017 | – |
| N=C(N)NC1CCC(Nc2ccn3c(=O)c(C(=O)NC(CC(=O)O)c4ccccc4)ccc3c2)CC1 (racemic) [Compound XLI, (+/−)-3-{[8-(4-Guanidino-cyclohexylamino)-4-oxo-4H-quinolizine-3-carbonyl]-amino}-3-phenyl-propionic Acid Trifluoroacetic Acid Salt] | 17 | 0.23 | – |

The next lines start with results.

| IC50 [1] [µM] | IC50 [3] [µM] | SMILES | also measured |
| --- | --- | --- | --- |
| 1.1 | 0.79 | CNC(=O)NCCCOc1ccc2cc(C(=O)NC[C@H](NS(=O)(=O)c3ccccc3)C(=O)O)cc(=O)n2c1 [Compound XII, (S)-2-Benzenesulfonylamino-3-({7-[3-(3-methyl-ureido)-propoxy]-4-oxo-4H-quinolizine-2-carbonyl}-amino)-propionic Acid] | – |
| 0.29 | 3.5 | O=C(NC[C@H](NS(=O)(=O)c1ccccc1)C(=O)O)c1cc(=O)n2cc(CNc3ncccn3)ccc2c1 [Compound XLVI, (S)-2-Benzenesulfonylamino-3-([4-oxo-7-(pyrimidin-2-ylaminomethyl)-4H-quinolizine-2-carbonyl]-amino)-propionic acid trifluoroacetic acid salt] | – |
| 17 | 0.11 | NCCCOc1ccn2c(=O)cc(C(=O)NC[C@H](NS(=O)(=O)c3ccccc3)C(=O)O)cc2c1 [Compound XXX, (S)-3-{[8-(3-Amino-propoxy)-4-oxo-4H-quinolizine-2-carbonyl]-amino}-2-benzenesulfonylamino-propionic Acid Trifluoroacetic Acid Salt] | – |
| 17 | 0.016 | NCCCCCOc1ccn2c(=O)cc(C(=O)NC[C@H](NS(=O)(=O)c3ccccc3)C(=O)O)cc2c1 [Compound XXXIV, (S)-3-{[8-(S-Amino-pentyloxy)-4-oxo-4H-quinolizine-2-carbonyl]-amino}-2-benzenesulfonylamino-propionic Acid Trifluoroacetic Acid Salt] | – |
| 0.37 | 0.1 | NCC1CCc2cc(C(=O)NCC(NS(=O)(=O)c3ccccc3)C(=O)O)cc(=O)n2C1 [Compound XXVIII, (2S, 7R) and (2S, 7S)-3-[(7-Aminomethyl-4-oxo-6,7,8,9-tetrahydro-4H-quinolizine-2-carbonyl)-amino]-2-benzenesulfonylamino-propionic Acid Trifluoroacetic Acid Salt] | – |
| 17 | 0.00038 | NCCCOc1ccc2cc(C(=O)NC[C@H](NS(=O)(=O)c3ccccc3)C(=O)O)cc(=O)n2c1 [Compound XIV, (S)-3-{[7-(3-Amino-propoxy)-4-oxo-4H-quinolizine-2-carbonyl]-amino}-2-benzenesulfonylamino-propionic Acid Trifluoroacetic Acid Salt] | – |
| 92 | 0.0018 | NCCCOc1ccc2ccc(NC(=O)NC[C@H](NS(=O)(=O)c3ccccc3)C(=O)O)c(=O)n2c1 [Compound VII, (S)-3-{3-[7-(3-Amino-propoxy)-4-oxo-4H-quinolizin-3-yl]-ureido}-2-Benzenesulfonylamino-propionic Acid] | – |
